In PMC7699745, “The Search for New Anticonvulsants in a Group of (2,5-Dioxopyrrolidin-1-yl)(phenyl)Acetamides with Hybrid Structure—Synthesis and In Vivo/In Vitro Studies” (International Journal of Molecular Sciences, 2020):
Values joined by “and” are separate entries in the source; they are usually repeats but may differ in a detail not shown here. Equal values may be shown once.

Legend:
Na+ channel (site 2) = experiment: Radioligand binding, Na+ channel (site 2); details: 10 µM; rat cerebral cortex
Description: Taking into consideration the structural similarities of molecules described in the current manuscript with their chemical prototypes AS-1 and DK-1, the binding studies toward aforementioned molecular targets were performed commercially for several active substances from each subseries (3, 4, 21, 24, 25, 27, 29, and 30). Furthermore, we also tested two other and well-known targets for AEDs, namely, the Cav2.2 (N-type) calcium channel and gamma-aminobutyric acid (GABA)-A receptor. With the aim of excluding potentially dangerous proarrhythmic properties for each compound, their interaction with the potassium (hERG) channel was also tested.
(§1) Binding studies were carried out commercially in Eurofines Laboratories (Poitiers, France). The functional assays were performed in Eurofins Panlabs Discovery Services Taiwan, Ltd. (New Taipei City, Taiwan). All procedures are described elsewhere (for details, see Table S4 in Supplementary Materials).
(§2) Binding studies were carried out commercially in Eurofines Laboratories (Poitiers, France). The
(§3) functional assays were performed in Eurofins Panlabs Discovery Services Taiwan, Ltd. (New Taipei
(§4) City, Taiwan). All procedures are described elsewhere (Table S4).
(§5) Table S4. In vitro binding and functional assays. […]

[1] = Parallel artificial membrane permeability assay (PAMPA)
Description: Passive diffusion was tested in the parallel artificial membrane permeability assay (PAMPA) and expressed as the permeability coefficient (Pe). A highly permeable compound, caffeine (CFN), and a poorly permeable compound, norfloxacin (NFX), were used as the references.
Precoated PAMPA Plate System Gentest™ was provided by Corning, (Tewksbury, MA, USA).

[2] = system: capsaicin-induced nociceptive response, mice; experiment: Capsaicin-induced pain model; type: in vivo
Text: Capsaicin activates C polymodal fibers and enhances their firing, which contributes to subsequent hyperalgesia. The molecular mechanism of action of capsaicin is the activation of the nonselective cation channel, transient receptor potential vanilloid-1 (TRPV1), which is localized on nociceptive free nerve endings. That induces the release of proinflammatory neuropeptides such as calcitonin gene-related peptide (CGRP), vasoactive intestinal peptide (VIP), and substance P (SP). The phenomenon of the induction of tissue inflammation by the peripheral nervous system is called neurogenic inflammation, and it is involved in the development of inflammatory and neuropathic pain. AEDs such as gabapentin, topiramate, or lamotrigine decrease capsaicin-induced nocifensive behavior [25].
The experimental groups consisted of 6–12 adult male Albino Swiss mice (CD-1, 18–25 g). Each animal was tested only once. […]
The experimental in vivo procedures were previously reported for the formalin test; compounds 4 and 30 were tested in three doses—40, 80, 120 mg/kg (4), and 20, 40, 80 mg/kg (30). […] The in vivo procedure for the model of capsaicin-induced nociception was previously reported; the animals were pretreated with vehicle (10 mL/kg, negative control) and the dose–response of investigated compounds was evaluated at 40, 80, 120 mg/kg (4), and 20, 40, 80 mg/kg (30). […]

[3] = Metabolic stability in human liver microsomes; type: in vitro ADME; details: 120 min incubation with HLMs
Text: Human liver microsomes (HLMs) were used for metabolic stability determination. Moreover, the most probable phase I reactions and structures of metabolites were proposed according to ion fragment analyses with the in silico support of MetaSite 6.0.1 software. […] On the other hand, an excellent metabolic stability of compound 24 was observed. Less than 4% of this derivative was converted into double-hydroxylated metabolite M1 (Figures S3, S4, and S7, Supplementary Materials). Finally, two monohydroxylated metabolites (M1, M2) were found in the reaction mixture with HLMs and 30, and around 17% of this compound was metabolized (Figures S5–S7, Supplementary Materials).
These assays were performed on human liver microsomes (HLMs), purchased from Sigma-Aldrich (St. Louis, MO, USA), according to [14].

[4] = molecular target: T1, Cav1.2 (h) calcium ion channel (Homo sapiens, UniProt Q13936); experiment: Cav1.2 (h) cell-based antagonist calcium flux assay
T1 construct: host or cells: HEK-293
T1 sequence (Q13936 whole entry): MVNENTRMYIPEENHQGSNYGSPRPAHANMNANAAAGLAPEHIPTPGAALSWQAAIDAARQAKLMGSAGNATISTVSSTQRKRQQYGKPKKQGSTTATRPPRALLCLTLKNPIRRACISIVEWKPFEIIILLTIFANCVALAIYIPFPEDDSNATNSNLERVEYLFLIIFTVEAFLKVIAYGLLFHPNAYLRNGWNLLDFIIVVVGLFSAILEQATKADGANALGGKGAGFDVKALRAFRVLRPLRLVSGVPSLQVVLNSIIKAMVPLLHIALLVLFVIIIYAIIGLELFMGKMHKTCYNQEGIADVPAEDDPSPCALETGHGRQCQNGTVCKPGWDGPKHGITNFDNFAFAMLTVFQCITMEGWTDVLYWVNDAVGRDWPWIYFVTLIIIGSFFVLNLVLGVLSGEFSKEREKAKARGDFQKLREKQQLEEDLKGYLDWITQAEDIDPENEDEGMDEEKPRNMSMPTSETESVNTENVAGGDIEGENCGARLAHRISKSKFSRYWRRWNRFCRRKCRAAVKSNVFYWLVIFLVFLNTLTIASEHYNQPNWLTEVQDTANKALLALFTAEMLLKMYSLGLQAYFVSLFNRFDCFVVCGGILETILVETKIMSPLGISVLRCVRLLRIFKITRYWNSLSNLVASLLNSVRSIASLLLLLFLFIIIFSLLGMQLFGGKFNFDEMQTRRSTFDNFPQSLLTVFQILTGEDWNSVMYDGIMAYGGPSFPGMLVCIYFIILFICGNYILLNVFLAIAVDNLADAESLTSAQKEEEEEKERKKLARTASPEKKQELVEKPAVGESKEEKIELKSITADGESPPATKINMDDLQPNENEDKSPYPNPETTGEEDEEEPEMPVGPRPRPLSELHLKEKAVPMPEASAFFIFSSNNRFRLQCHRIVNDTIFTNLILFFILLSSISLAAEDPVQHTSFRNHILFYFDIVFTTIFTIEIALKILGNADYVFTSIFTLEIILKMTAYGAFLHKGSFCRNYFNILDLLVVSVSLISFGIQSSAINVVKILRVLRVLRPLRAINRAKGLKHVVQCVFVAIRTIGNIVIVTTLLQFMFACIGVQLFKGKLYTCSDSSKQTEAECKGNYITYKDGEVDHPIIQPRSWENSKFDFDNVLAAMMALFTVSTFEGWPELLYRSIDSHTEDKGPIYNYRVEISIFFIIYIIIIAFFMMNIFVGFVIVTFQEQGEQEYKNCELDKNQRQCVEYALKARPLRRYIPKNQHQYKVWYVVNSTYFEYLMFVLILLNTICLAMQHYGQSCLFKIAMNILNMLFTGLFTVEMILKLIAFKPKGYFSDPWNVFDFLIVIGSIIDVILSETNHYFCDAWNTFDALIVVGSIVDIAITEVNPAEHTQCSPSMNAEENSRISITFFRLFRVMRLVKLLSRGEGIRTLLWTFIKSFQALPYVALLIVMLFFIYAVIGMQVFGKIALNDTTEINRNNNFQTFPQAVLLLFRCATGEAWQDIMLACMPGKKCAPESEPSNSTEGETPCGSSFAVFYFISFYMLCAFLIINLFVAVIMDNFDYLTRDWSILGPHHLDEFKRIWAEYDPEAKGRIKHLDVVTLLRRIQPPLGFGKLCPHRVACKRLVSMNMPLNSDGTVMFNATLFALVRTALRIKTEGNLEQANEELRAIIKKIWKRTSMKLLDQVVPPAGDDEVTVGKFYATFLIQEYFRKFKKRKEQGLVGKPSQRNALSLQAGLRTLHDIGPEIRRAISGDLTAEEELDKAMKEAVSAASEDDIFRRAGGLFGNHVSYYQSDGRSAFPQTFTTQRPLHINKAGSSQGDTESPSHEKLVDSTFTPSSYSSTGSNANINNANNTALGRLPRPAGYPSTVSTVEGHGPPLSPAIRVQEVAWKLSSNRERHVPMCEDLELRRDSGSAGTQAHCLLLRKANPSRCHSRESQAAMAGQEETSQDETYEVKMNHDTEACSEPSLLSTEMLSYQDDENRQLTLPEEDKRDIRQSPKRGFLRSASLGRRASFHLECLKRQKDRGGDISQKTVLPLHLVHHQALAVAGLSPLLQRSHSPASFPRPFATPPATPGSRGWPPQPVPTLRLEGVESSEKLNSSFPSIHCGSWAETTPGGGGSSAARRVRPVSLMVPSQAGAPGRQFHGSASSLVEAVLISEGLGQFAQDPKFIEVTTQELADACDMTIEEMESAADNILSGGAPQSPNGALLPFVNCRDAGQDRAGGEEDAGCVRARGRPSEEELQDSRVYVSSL
T1 sequence (Q08289 whole entry partner): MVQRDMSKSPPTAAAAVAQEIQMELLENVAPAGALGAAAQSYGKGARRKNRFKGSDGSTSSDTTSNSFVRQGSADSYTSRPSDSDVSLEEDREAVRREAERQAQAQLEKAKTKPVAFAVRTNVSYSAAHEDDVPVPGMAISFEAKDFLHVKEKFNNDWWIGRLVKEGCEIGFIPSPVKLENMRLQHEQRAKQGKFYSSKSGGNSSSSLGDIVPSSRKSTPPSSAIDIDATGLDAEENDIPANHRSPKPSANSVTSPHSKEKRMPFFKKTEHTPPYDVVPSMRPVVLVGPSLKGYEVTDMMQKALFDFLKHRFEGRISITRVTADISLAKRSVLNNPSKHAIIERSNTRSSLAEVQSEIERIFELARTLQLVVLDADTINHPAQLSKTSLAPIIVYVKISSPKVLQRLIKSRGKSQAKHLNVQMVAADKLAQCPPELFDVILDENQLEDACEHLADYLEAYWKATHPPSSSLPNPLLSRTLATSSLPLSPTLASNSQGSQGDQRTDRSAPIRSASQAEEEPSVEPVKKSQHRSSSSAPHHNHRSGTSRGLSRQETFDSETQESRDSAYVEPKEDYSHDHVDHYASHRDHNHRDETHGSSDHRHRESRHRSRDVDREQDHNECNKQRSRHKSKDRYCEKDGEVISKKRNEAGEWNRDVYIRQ
T1 sequence (P54289 25-956 partner limits assumed): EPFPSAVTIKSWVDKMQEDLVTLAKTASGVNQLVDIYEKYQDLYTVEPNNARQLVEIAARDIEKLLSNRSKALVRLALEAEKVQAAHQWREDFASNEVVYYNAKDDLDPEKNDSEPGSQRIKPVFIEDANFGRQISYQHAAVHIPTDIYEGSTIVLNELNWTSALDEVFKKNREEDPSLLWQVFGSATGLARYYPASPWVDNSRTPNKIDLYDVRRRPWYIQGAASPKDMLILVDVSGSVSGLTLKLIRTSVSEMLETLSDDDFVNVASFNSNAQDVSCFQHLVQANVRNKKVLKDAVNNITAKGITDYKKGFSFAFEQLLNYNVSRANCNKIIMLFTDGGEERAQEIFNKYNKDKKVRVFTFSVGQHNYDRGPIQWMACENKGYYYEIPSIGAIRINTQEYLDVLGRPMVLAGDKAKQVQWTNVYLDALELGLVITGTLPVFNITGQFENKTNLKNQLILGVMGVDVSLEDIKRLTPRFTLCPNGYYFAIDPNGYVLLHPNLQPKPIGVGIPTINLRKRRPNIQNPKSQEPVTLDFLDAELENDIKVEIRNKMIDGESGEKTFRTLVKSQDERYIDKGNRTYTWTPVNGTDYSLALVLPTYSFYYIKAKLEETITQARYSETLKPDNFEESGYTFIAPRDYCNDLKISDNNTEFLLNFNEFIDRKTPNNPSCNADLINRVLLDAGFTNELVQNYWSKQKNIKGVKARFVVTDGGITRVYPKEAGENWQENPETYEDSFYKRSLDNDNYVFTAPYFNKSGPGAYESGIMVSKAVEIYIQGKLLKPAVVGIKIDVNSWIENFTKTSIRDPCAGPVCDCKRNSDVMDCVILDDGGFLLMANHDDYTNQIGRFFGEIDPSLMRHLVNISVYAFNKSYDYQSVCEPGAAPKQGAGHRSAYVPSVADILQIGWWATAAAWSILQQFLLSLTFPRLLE
T1 sequence (P54289 957-1103 partner limits assumed): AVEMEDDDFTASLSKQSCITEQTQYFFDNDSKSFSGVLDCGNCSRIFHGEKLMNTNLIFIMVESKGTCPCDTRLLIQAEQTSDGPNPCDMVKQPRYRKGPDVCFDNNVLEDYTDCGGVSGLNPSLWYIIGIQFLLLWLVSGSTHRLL
Description: as §1, §2, §3, §4, §5
Cav1.2 (h) calcium ion channel cell based antagonist calcium flux assay 16,17

hepatoma HepG2 cells = experiment: Hepatotoxicity, MTS cell viability assay; type: cell-based; details: 100 µM, 72 h
Description: The hepatotoxicity assessment was done with use of hepatoma HepG2 cells, which were incubated for 72 h in the presence of 1–100 µM concentrations of 4, 24, and 30. The CellTiter 96® aqueous nonradioactive cell proliferation assay (MTS) purchased from Promega (Madison, WI, USA) was used for determination of cell viability. The absorbance was measured using a microplate reader EnSpire (PerkinElmer, Waltham, MA, USA) at 492 nm. The obtained results confirmed the safety of the investigated series.
These studies were performed on hepatoma HepG2 cells, according to a protocol reported previously

CYP3A4 = molecular target: T2, CYP3A4 (Homo sapiens, UniProt P08684); experiment: Luminescent CYP3A4 P450-Glo assay; type: in vitro ADME; details: 1 µM
T2 construct: purchased Promega (Madison, WI, USA)
T2 sequence (P08684 whole entry): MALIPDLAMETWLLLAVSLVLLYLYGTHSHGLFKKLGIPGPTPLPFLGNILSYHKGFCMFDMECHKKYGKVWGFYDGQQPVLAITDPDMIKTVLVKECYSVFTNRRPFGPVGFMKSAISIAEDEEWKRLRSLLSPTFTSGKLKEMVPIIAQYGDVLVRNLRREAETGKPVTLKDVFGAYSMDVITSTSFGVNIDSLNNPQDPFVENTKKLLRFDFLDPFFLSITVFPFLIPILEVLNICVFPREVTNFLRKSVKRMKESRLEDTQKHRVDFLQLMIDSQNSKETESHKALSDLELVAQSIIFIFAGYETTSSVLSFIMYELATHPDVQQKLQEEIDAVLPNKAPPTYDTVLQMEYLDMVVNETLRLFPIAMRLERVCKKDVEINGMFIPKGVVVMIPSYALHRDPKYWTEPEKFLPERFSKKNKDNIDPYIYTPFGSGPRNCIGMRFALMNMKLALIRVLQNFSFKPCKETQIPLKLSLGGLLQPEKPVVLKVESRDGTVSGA

SMILES | % Inhibition of Control Specific Binding, Na+ Channel (Site 2) (Antagonist Radioligand) (Na+ channel (site 2)) [%] | Papp [1] [×10⁻⁶ cm/s] | attenuation of nociceptive response in capsaicin-induced pain ([2]; i.p., 120 mg/kg) [%] | parent compound remained in the reaction mixture [3] | antagonist properties in cell-based flux studies (Cav1.2) ([4]; 10 µM) | inhibition at 10 µM ([4]; HEK293, human recombinant (HEK-293 cells), read-out: % Inhibition of Control Agonist Response, Cav1.2 (h) calcium flux) [%] | effect on HepG2 cells viability (hepatoma HepG2 cells) | effect on CYP3A4 activity (CYP3A4) | ED50 ([2]; Mus musculus, ip, i.p. 30 min before test) [mg/kg] | compound converted into metabolites / metabolized [3]
O=C(Nc1ccccc1F)C(c1ccccc1)N1C(=O)CCC1=O (stereo not shown) [Compound 4, 2-(2,5-Dioxopyrrolidin-1-yl)-N-(2-fluorophenyl)-2-phenylacetamide] | 23.5 | 11.2 ± 0.7 | 37.9 | 71.44% and 71.4% |  |  |  |  |  | 
O=C(NCCc1cccc(OC(F)(F)F)c1)C(c1ccccc1)N1C(=O)CCC1=O (stereo not shown) [Compound 30, 2-(2,5-Dioxopyrrolidin-1-yl)-2-phenyl-N-(3-(trifluoromethoxy)phenethyl)acetamide] | 15.8 | 13.2 ± 1.5 |  | 83.39% | moderate antagonist properties | 49 | statistically significant (p < 0.001) effect on cells viability | slightly inhibited CYP3A4 activity | 35.3 | around 17%
